Columns and labels:
KPL-4 cells = assay: Tumor cell proliferation assay (CellTiter-Glo); format: cell-based; settings: KPL4; 72 h drug exposure
[1] = molecular target: His-tagged human recombinant kinase full-length Akt1 (Homo sapiens (Human), UniProt P31749); assay: Akt1 kinase assay (TR-FRET); format: biochemical; settings: 10 μM ATP; median
Procedure, shortened: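 Full-length His-tagged human Akt1 from insect cells, pre-incubated 15 min with compound, then 60 min at 22° C with 10 μM ATP and 1 μM biotinylated peptide in pH 7.5 TRIS buffer. Phosphopeptide detected by HTRF (665/620 nm ratio); data normalised to no-inhibitor and no-enzyme controls.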

[2] = test system: phospho-AKT at S473 in KPL4 breast tumour cell line; assay: Cellular p-AKT1/2/3-S473 assay; format: cell-based; settings: KPL4 cells, 2 hours treatment; median; read-out: pAKT-S743 median IC50
[3] = molecular target: His-tagged human recombinant kinase full-length Akt2 (Homo sapiens (Human), UniProt P31751); assay: Akt2 kinase assay (TR-FRET); format: biochemical; settings: 10 μM ATP; median
Chain of His-tagged human recombinant kinase full-length Akt2 (P31751 whole entry): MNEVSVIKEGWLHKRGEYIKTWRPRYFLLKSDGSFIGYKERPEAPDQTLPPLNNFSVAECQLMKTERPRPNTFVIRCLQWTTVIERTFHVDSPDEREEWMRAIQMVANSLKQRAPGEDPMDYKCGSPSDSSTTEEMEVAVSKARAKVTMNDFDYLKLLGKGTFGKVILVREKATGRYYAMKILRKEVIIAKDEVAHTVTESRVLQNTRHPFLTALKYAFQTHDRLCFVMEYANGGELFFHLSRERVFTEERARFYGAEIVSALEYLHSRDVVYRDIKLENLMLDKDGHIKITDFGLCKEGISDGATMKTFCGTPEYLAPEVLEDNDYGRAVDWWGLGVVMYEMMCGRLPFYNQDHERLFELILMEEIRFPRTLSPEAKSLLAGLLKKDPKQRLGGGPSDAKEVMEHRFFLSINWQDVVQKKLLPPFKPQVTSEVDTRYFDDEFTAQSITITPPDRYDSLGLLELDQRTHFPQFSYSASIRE
Procedure, shortened: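 PDK1-activated full-length His-Akt2 (insect-cell expressed, ~0.2 ng/μl final) pre-incubated with compound 15 min, then reacted 60 min at 22 °C with 10 μM ATP and 1 μM biotinylated peptide in Tris pH 7.5/MgCl2/DTT. EDTA stop; phospho-peptide read by HTRF 665/620 ratio, normalised to no-inhibitor and no-enzyme controls.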

Chain of His-tagged human recombinant kinase full-length Akt1 (P31749 whole entry): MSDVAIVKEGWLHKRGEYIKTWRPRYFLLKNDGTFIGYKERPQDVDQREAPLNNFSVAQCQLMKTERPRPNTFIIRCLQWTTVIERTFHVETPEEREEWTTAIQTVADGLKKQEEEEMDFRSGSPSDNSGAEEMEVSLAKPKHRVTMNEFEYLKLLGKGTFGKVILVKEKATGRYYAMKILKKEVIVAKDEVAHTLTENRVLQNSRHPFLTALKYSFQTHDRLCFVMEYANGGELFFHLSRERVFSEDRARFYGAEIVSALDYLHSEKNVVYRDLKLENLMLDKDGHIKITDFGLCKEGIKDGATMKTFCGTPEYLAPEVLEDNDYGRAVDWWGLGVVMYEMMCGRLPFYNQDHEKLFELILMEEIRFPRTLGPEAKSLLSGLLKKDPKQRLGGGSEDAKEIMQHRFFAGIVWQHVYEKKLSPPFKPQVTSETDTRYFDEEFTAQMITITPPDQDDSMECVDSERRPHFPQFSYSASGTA

IC50 (KPL-4 cells) [nM] | IC50 [1] [nM] | IC50 [2] [nM] | IC50 [3] [nM] | SMILES
3360 | 146 | 160 | 431 | NC1(c2ccc(-c3nn4c(-c5ccc(O)nc5)cnc4cc3-c3ccccc3)cc2)CCC1 [Example 4-13, 5-{6-[4-(1-Amino-cyclobutyl)-phenyl]-7-phenyl-imidazo[1,2-b]pyridazin-3-yl}-pyridin-2-ol]
6020 | 19 | 920 | 115 | COC(=O)c1ccc(-c2cnc3cc(-c4ccccc4)c(-c4ccc(C5(N)CCC5)cc4)nn23)cn1 [Example 4-14, 5-{6-[4-(1-Amino-cyclobutyl)-phenyl]-7-phenyl-imidazo[1,2-b]pyridazin-3-yl}-pyridine-2-carboxylic acid methyl ester]

— patent US8987273B2, “Substituted imidazo[1,2-B]pyridazines” (Bayer Intellectual Property GmbH, priority 2010, dated 2015)
